This note sets out measurements from patent publication US20250339531A1, “DUX4 POLYPEPTIDES AND NUCLEIC ACIDS FOR TREATING INFLAMMATORY AND AUTOIMMUNE CONDITIONS” (Fred Hutchinson Cancer Center, priority 2021, published 2025).

Test [1] deals with HLA-A, HLA-B, HLA-C, PSMB8, PSMB9, PSMB10 mRNA. Kind of test: mRNA levels of MHC-I and immunoproteasome genes (RT-PCR, RNA-seq). In kind it is cell-based, human. Particulars: MB135iDUX4 cells. The protocol:
Myoblasts were transfected with either (final concentrations) 10 μM 2′,3′-cGAMP (Sigma Aldrich), 2 μg/mL poly(I:C) (Invitrogen), or 1 μg/mL 3′ppp-dsRNA RIG-I ligand (Dan Stetson Lab, UW) using Lipofectamine 2000 according to manufacturer's protocol, or were stimulated with 1000U IFNβ (PeproTech) or 200 ng/ml IFNγ (R+D Systems) by addition directly to cell culture medium. After 16 hours of immune stimulation, RNA was collected from cells using the NucleoSpin RNA Kit (Macherey-Nagel) according to manufacturer's instructions. RNA samples were quantified by nanodrop and 1 μg of RNA per sample was treated with DNase I Amplification Grade (Thermo Fisher), and then synthesized into cDNA using the Superscript IV First-Strand Synthesis System, including oligo dT primers (Invitrogen). qPCR was run in 384-well plates on an Applied Biosystems QuantStudio 6 Flex Real-Time PCR System (ABI) and analyzed in Microsoft Excel.
Total RNA was isolated using the NucleoSpin RNA kit (Machery-Nagel) or Direct-zol RNA Mini-Prep Kit (Zymo Research) according to manufacturer's instructions. RNA-seq libraries were prepared using the Illumina TruSeq RNA Sample Prep v2 Kit and sequenced using 50 bp paired-end sequencing on the Illumina NextSeq platform by the Fred Hutchinson Cancer Center Genomics Core.

The next test has as its system HLA-E. As to the kind of experiment: Immunoblot of non-canonical MHC class I HLA-E. In kind it is cell-based, human. Particulars: MB135iDUX4 cells. The protocol: Protein samples were harvested in RIPA buffer [150 mM NaCl, 1% NP-40, 0.5% Na-deocycholate, 1% SDS, 25 mM Tris-HCl pH7.4] supplemented with protease and phosphatase inhibitor tablets (Pierce), followed by sonication in Diagenode Bioruptor. Lysate was cleared by centrifugation at 16000×g and quantified using a Pierce BCA assay (Thermo Fisher Scientific). Samples were run on NuPAGE precast polyacrylamide gels (Invitrogen) and transferred to PVDF membrane. Membranes were blocked in PBS containing 0.1% Tween-20 and 5% non-fat dry milk before overnight incubation at 4° C. with primary antibodies (see resource table for a list of antibodies used in this study). Membranes were incubated with horseradish peroxidase-conjugated secondary antibodies for 1 hour at room temperature and SuperSignal chemiluminescent substrate (Thermo Scientific) was used for detection on film with a Mini-medical 90 processor. Membranes were stripped with Restore Western Blot Stripping Buffer (Pierce).
For orientation: Immunoblotting shows a protein as a band on a membrane.

Test [2] deals with proteins that co-immunoprecipitated with DUX4-CTD constructs expressed in MB135 myoblasts. As to the kind of experiment: LC-MS of proteins co-immunoprecipitated with DUX4-CTD (Table 1) and western validation. Particulars: LC-MS of co-IP; western validation with MB135-iDUXB as control; listed as DUX4-CTD. Format: binding, human. From the text: As an unbiased method to identify proteins that interact with the C-terminal region of DUX4, liquid chromatography mass spectroscopy (LC-MS) was used to identify proteins that co-immunoprecipitated with DUX4-CTD constructs expressed in MB135 myoblasts. In the first experiment, MB135iDUX4-CTD cells were used, either untreated, treated with doxycycline alone, or with both doxycycline and IFNG. In the second experiment, MB135iDUX4-CTD and MB135iDUX4mL1dL2 cells were used, both treated with doxycycline and IFNG, compared to these two cell lines untreated and combined as a control. Proteins with a minimum of 2 peptide spectrum matches (PSMs) in at least one sample that were identified in both experiments were assigned to one of ten categories (see Methods) to separate candidate interactors from other categories that might be co-purified because of obligate interactions (e.g., proteasome or ribosome) or might be less likely to be physiologically relevant (e.g., cytoskeletal proteins). Candidate interactors were then ranked based on the total PSMs for that protein across all samples.
Centrifugation at 2500 rcf at 4° C. for 5 min pelleted the nuclei, supernatant was discarded, and nuclei resuspended in 1 mL IP buffer pH 7.4 (25 mM Tris-HCl pH 7.5, 175 mM NaCl, 1 mM EDTA, 0.2% NP-40, 5% glycerol) and incubated for 1 hour at 4° C. with rotation then spun at 21000 rcf for 10 minutes at 4° C. to pellet insoluble debris. Protein concentration was determined using the Pierce BCA Protein Assay Kit (ThermoFisher, 23225). An equivalent amount of protein per sample was pre-cleared with Dynabeads Protein G (Invitrogen) bound to mouse IgG (Abcam #131368) for 1 hour at 4° C. with rotation. FLAG-tagged constructs were then immunoprecipitated with Dynabeads Protein G beads coupled to mouse anti-FLAG M2 mAb (Sigma F3165) for 3 hours at 4° C. with rotation. Beads were washed 3× with 1 mL IP buffer and eluted by adding 2× NuPage LDS Sample Buffer (Thermo Fisher, diluted from 4× with PBS) to the beads and heating for 10 minutes at 70° C.
For LC-MS, anti-FLAG immunoprecipitation was performed with beads cross-linked to the anti-FLAG antibody and the proteins competitively eluted with FLAG peptide. Eluted protein samples were electrophoresed into a NuPage 4-12% Bis-Tris gel, excised, and processed by the Fred Hutchinson Cancer Research Center Proteomics Core. Samples were reduced, alkylated, digested with trypsin, desalted, and run on the Orbitrap Eclipse Tribid Mass Spectrometer (Thermo Fisher). Proteomics data were analyzed using Proteome Discoverer 2.4 against a Uniprot human database that included common contaminants using Sequest HT and Percolator for scoring. […] Proteins that were identified in at least one sample from both independent experiments with at least 2 PSMs in one sample were assigned to one of ten categories: 1, candidates; 2, cytoskeletal associated; 3, cytoskeletal; 4, ribosome/translation associated; 5, proteasome associated; 6, membrane or extracellular; ER, golgi, or vesicle associated; 8, lipid metabolism; 9, chaperones; 10, nuclear import or nuclear membrane associated. The proteins in category 1 were further investigated for interactions with DUX4.

Entries after “also recorded” stand apart in the source; their conditions may differ.

“DUX4: human DUX4 protein SEQ ID NO:3 expressed from doxycycline inducible codon altered transgene SEQ ID NO:2”: in test [1], the “effect on IFNG-induced mRNAs of MHC class I / immunoproteasome genes, continuous protocol” value was “profound inhibition of the IFNG-induction of the mRNA for MHC class I genes; also recorded: partially suppresses the IFNG induction of the mRNAs for PSMB8, 9, and 10; also recorded: partly blocked IFNG stimulation of HLA-A, HLA-B, HLA-C, PSMB8, PMSB9, and PSMB10 mRNA levels”; the “effect on IFNG-induced mRNAs of MHC class I / immunoproteasome genes, pulsed protocol” value was “little suppression of their mRNAs; also recorded: nearly full induction of these mRNAs; also recorded: still exhibited IFNG-induced mRNA levels significantly above untreated samples”. Moreover, the “effect on IFNG-induced HLA-E protein” value in the test on HLA-E is “does not suppress the noncanonical MHC class E (HLA-E); also recorded: maintaining HLA-E in multiple cell types”.
For the substance “longCTD: 3×FLAG tag and nls in frame with carboxyterminal 271 amino acids of DUX4 (aa154-424), SEQ ID NOS: 8-9”, the candidate interacting proteins entry in test [2] is “STAT1 and DDX3X, two key regulators of innate immune signaling, ranked at the top of the list; also recorded: validated the DUX4-CTD interactions with DDX3X, STAT1, PRKDC, YBX1, HNRNPM, PABPC1, NCL, CDK4, and HNRPU”.
